Patent publication US20250296939A1, “BENZOTHIOPHENE COMPOUND” (Kyoto Pharmaceutical Industries, Ltd., priority 2022, published 2025)

What was measured:
[1] = molecular target: GST-fused human Keap1 (amino acid residues: 325-642) protein (Homo sapiens (Human), UniProt Q14145); assay: FP assay (in vitro): inhibition of binding between Nrf2 and Keap1 by fluorescence polarization; conditions: 20 nM GST-fused human Keap1, 10 nM FITC-labeled Nrf2 peptide, 2 hr at room temperature
[2] = system: NQO1 activity in Hepa1c1c7 cells; assay: NAD(P)H: quinone oxidoreductase-1 (NQO1) enzyme induction assay (in vitro); type: cell-based, mouse; conditions: Mus musculus, Hepa-1c1c7, NQO1 activity upon addition of 400 nM of test compound, about 48 hr, ratio from the base without the compound
Outline: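 Mouse Hepa1c1c7 hepatoma cells were treated with 400 nM compound for about 48 h, then lysed with digitonin/EDTA. NQO1 activity was measured as menadione-mediated MTT reduction with a G6P/G6PDH NADPH-regenerating system, stopped with dicoumarol, and read at A610. Values are the activity ratio versus untreated base wells.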

Sequence of GST-fused human Keap1 (amino acid residues: 325-642) protein (Q14145 325-624 limits assumed): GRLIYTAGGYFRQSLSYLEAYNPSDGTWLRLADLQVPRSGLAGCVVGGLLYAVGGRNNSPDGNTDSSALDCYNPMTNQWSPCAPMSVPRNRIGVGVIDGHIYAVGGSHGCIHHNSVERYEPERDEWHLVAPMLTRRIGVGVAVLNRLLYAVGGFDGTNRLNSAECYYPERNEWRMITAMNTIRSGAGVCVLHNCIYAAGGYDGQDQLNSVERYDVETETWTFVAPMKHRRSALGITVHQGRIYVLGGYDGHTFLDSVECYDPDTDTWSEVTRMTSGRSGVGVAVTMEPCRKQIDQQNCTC

Row | Structure (SMILES) | IC50 [1] | fold induction at 0.4 µM [2]
1 | Cc1c([C@H](CC(=O)O)c2cc(CN3Cc4nc(O)ccc4O[C@H](C(F)(F)F)C3)c3sccc3c2)ccc2c1nnn2C [Example 37, (3R)-3-(1,4-Dimethyl-1H-benzotriazol-5-yl)-3-(7-{[(2S)-7-hydroxy-2-(trifluoromethyl)-2,3-dihydropyrido[2,3-f][1,4]oxazepin-4(5H)-yl]methyl}-1-benzothiophen-5-yl)propanoic acid] | 10 to 30 nM | > 5
2 | Cc1c([C@@H](CC(=O)O)c2cc(CN3Cc4nc(O)ccc4O[C@H](C(F)(F)F)C3)c3sccc3c2)ccc2c1nnn2C [Example 38, (3S)-3-(1,4-Dimethyl-1H-benzotriazol-5-yl)-3-(7-{[(2S)-7-hydroxy-2-(trifluoromethyl)-2,3-dihydropyrido[2,3-f][1,4]oxazepin-4(5H)-yl]methyl}-1-benzothiophen-5-yl)propanoic acid] | ≤ 10 nM | > 5
3 | Cc1c([C@H](CC(=O)O)c2cc(CN3Cc4nc(O)ccc4O[C@@H](C(F)(F)F)C3)c3sccc3c2)ccc2c1nnn2C [Example 39, (3R)-3-(1,4-Dimethyl-1H-benzotriazol-5-yl)-3-(7-{[(2R)-7-hydroxy-2-(trifluoromethyl)-2,3-dihydropyrido[2,3-f][1,4]oxazepin-4(5H)-yl]methyl}-1-benzothiophen-5-yl)propanoic acid] | 300 to 3000 nM | 1.5 to 3
4 | Cc1c([C@@H](CC(=O)O)c2cc(CN3Cc4nc(O)ccc4O[C@@H](C(F)(F)F)C3)c3sccc3c2)ccc2c1nnn2C [Example 40, (3S)-3-(1,4-Dimethyl-1H-benzotriazol-5-yl)-3-(7-{[(2R)-7-hydroxy-2-(trifluoromethyl)-2,3-dihydropyrido[2,3-f][1,4]oxazepin-4(5H)-yl]methyl}-1-benzothiophen-5-yl)propanoic acid] | 300 to 3000 nM | 1.5 to 3
5 | CC[C@@H]1CN(Cc2cc([C@@H](CC(=O)O)c3cc(OC(F)F)c4c(nnn4C)c3C)cc3ccsc23)Cc2nc(O)ccc2O1 [Example 43, (3R)-3-[7-(Difluoromethoxy)-1,4-dimethyl-1H-benzotriazol-5-yl]-3-(7-{[(2R)-2-ethyl-7-hydroxy-2,3-dihydropyrido[2,3-f][1,4]oxazepin-4(5H)-yl]methyl}-1-benzothiophen-5-yl)propanoic acid] | 10 to 30 nM | > 5
6 | CC[C@@H]1CN(Cc2cc([C@H](CC(=O)O)c3cc(OC(F)F)c4c(nnn4C)c3C)cc3ccsc23)Cc2nc(O)ccc2O1 [Example 44, (3S)-3-[7-(Difluoromethoxy)-1,4-dimethyl-1H-benzotriazol-5-yl]-3-(7-{[(2R)-2-ethyl-7-hydroxy-2,3-dihydropyrido[2,3-f][1,4]oxazepin-4(5H)-yl]methyl}-1-benzothiophen-5-yl)propanoic acid] | ≤ 10 nM | > 5
7 | Cc1c([C@H](CC(=O)O)c2cc(CN3Cc4nc(O)ccc4O[C@H](C(C)(F)F)C3)c3sccc3c2)ccc2c1nnn2C [Example 45, (3R)-3-(7-{[(2S)-2-(1,1-Difluoroethyl)-7-hydroxy-2,3-dihydropyrido[2,3-f][1,4]oxazepin-4(5H)-yl]methyl}-1-benzothiophen-5-yl)-3-(1,4-dimethyl-1H-benzotriazol-5-yl)propanoic acid] | 10 to 30 nM | > 5
8 | Cc1c([C@@H](c2cc(CN3Cc4nc(O)ccc4OC4(CC4)C3)c3sccc3c2)C(C)(C)C(=O)O)ccc2c1nnn2C [Example 47, (3R)-3-(1,4-Dimethyl-1H-benzotriazol-5-yl)-3-{7-[(7′-hydroxy-3′H-spiro[cyclopropane-1,2′-pyrido[2,3-f][1,4]oxazepin]-4′ (5′H)-yl)methyl]-1-benzothiophen-5-yl}-2,2-dimethylpropanoic acid] | 300 to 3000 nM | 1.5 to 3
9 | Cc1c(C(CC(=O)O)c2cc(CN3Cc4nc(O)ccc4OC4(CC4)C3)c3sccc3c2)ccn2c(C)nnc12 (stereo not shown) [Example 54, 3-(3,8-Dimethyl[1,2,4]triazolo[4,3-a]pyridin-7-yl)-3-{7-[(7′-hydroxy-3′H-spiro[cyclopropane-1,2′-pyrido[2,3-f][1,4]oxazepin]-4′(5′H)-yl)methyl]-1-benzothiophen-5-yl}propanoic acid] | 10 to 30 nM | 3 to 5

Continued, in another order:

Row | IC50 [1] | Structure (SMILES) | fold induction at 0.4 µM [2]
10 | 10 to 30 nM | CC[C@@H]1CN(Cc2cc([C@@H](CC(=O)O)c3cc(C#N)c4c(nnn4C)c3C)cc3ccsc23)Cc2nc(O)ccc2O1 [Example 33, (3R)-3-(7-Cyano-1,4-dimethyl-1H-benzotriazol-5-yl)-3-(7-{[(2R)-2-ethyl-7-hydroxy-2,3-dihydropyrido[2,3-f][1,4]oxazepin-4(5H)-yl]methyl}-1-benzothiophen-5-yl)propanoic acid] | > 5
11 | 10 to 30 nM | CC[C@@H]1CN(Cc2cc([C@H](CC(=O)O)c3cc(C#N)c4c(nnn4C)c3C)cc3ccsc23)Cc2nc(O)ccc2O1 [Example 34, (3S)-3-(7-Cyano-1,4-dimethyl-1H-benzotriazol-5-yl)-3-(7-{[(2R)-2-ethyl-7-hydroxy-2,3-dihydropyrido[2,3-f][1,4]oxazepin-4(5H)-yl]methyl}-1-benzothiophen-5-yl)propanoic acid] | 3 to 5
12 | 10 to 30 nM | CC[C@@H]1CN(Cc2cc([C@@H](CC(=O)O)c3cc(C4CC4)c4c(nnn4C)c3C)cc3ccsc23)Cc2nc(O)ccc2O1 [Example 35, (3R)-3-(7-Cyclopropyl-1,4-dimethyl-1H-benzotriazol-5-yl)-3-(7-{[(2R)-2-ethyl-7-hydroxy-2,3-dihydropyrido[2,3-f][1,4]oxazepin-4(5H)-yl]methyl}-1-benzothiophen-5-yl)propanoic acid] | > 5
13 | 10 to 30 nM | CC[C@@H]1CN(Cc2cc([C@H](CC(=O)O)c3cc(C4CC4)c4c(nnn4C)c3C)cc3ccsc23)Cc2nc(O)ccc2O1 [Example 36, (3S)-3-(7-Cyclopropyl-1,4-dimethyl-1H-benzotriazol-5-yl)-3-(7-{[(2R)-2-ethyl-7-hydroxy-2,3-dihydropyrido[2,3-f][1,4]oxazepin-4(5H)-yl]methyl}-1-benzothiophen-5-yl)propanoic acid] | > 5
14 | ≤ 10 nM | CC[C@@H]1CN(Cc2cc([C@@H](CC(=O)O)c3cc(OC(F)(F)F)c4c(nnn4C)c3C)cc3ccsc23)Cc2nc(O)ccc2O1 [Example 41, (3R)-3-[1,4-Dimethyl-7-(trifluoromethoxy)-1H-benzotriazol-5-yl]-3-(7-{[(2R)-2-ethyl-7-hydroxy-2,3-dihydropyrido[2,3-f][1,4]oxazepin-4(5H)-yl]methyl}-1-benzothiophen-5-yl)propanoic acid] | > 5
15 | ≤ 10 nM | CC[C@@H]1CN(Cc2cc([C@H](CC(=O)O)c3cc(OC(F)(F)F)c4c(nnn4C)c3C)cc3ccsc23)Cc2nc(O)ccc2O1 [Example 42, (3S)-3-[1,4-Dimethyl-7-(trifluoromethoxy)-1H-benzotriazol-5-yl]-3-(7-{[(2R)-2-ethyl-7-hydroxy-2,3-dihydropyrido[2,3-f][1,4]oxazepin-4(5H)-yl]methyl}-1-benzothiophen-5-yl)propanoic acid] | > 5
16 | ≤ 10 nM | Cc1c([C@H](CC(=O)O)c2cc(CN3Cc4nc(O)ccc4O[C@H](C(F)(F)F)C3)c3sccc3c2)cnc2c1nnn2C [Example 46, (3R)-3-(3,7-Dimethyl-3H-[1,2,3]triazolo[4,5-b]pyridin-6-yl)-3-(7-{[(2S)-7-hydroxy-2-(trifluoromethyl)-2,3-dihydropyrido[2,3-f][1,4]oxazepin-4(5H)-yl]methyl}-1-benzothiophen-5-yl)propanoic acid] | 3 to 5
17 | 10 to 30 nM | CC[C@@H]1CN(Cc2cc([C@@H](c3cnc4c(nnn4C)c3C)C(C)(C)C(=O)O)cc3ccsc23)Cc2nc(O)ccc2O1 [Example 48, (3S)-3-(3,7-Dimethyl-3H-[1,2,3]triazolo[4,5-b]pyridin-6-yl)-3-(7-{[(2R)-2-ethyl-7-hydroxy-2,3-dihydropyrido[2,3-f][1,4]oxazepin-4(5H)-yl]methyl}-1-benzothiophen-5-yl)-2,2-dimethylpropanoic acid] | > 5
18 | 300 to 3000 nM | CC[C@@H]1CN(Cc2cc([C@H](c3cnc4c(nnn4C)c3C)C(C)(C)C(=O)O)cc3ccsc23)Cc2nc(O)ccc2O1 [Example 49, (3R)-3-(3,7-Dimethyl-3H-[1,2,3]triazolo[4,5-b]pyridin-6-yl)-3-(7-{[(2R)-2-ethyl-7-hydroxy-2,3-dihydropyrido[2,3-f][1,4]oxazepin-4(5H)-yl]methyl}-1-benzothiophen-5-yl)-2,2-dimethylpropanoic acid] | 3 to 5
19 | 10 to 30 nM | Cc1c([C@H](c2cc(CN3Cc4nc(O)ccc4OC4(CC4)C3)c3sccc3c2)C(C)(C)C(=O)O)cnc2c1nnn2C [Example 50, (3S)-3-(3,7-Dimethyl-3H-[1,2,3]triazolo[4,5-b]pyridin-6-yl)-3-{7-[(7′-hydroxy-3′H-spiro[cyclopropane-1,2′-pyrido[2,3-f][1,4]oxazepin]-4′(5′H)-yl)methyl]-1-benzothiophen-5-yl}-2,2-dimethylpropanoic acid] | > 5
20 | 10 to 30 nM | Cc1c([C@H](c2cc(CN3Cc4nc(O)ccc4O[C@H](C4CC4)C3)c3sccc3c2)C(C)(C)C(=O)O)cnc2c1nnn2C [Example 51, (3S)-3-(7-{[(2R)-2-Cyclopropyl-7-hydroxy-2,3-dihydropyrido[2,3-f][1,4]oxazepin-4(5H)-yl]methyl}-1-benzothiophen-5-yl)-3-(3,7-dimethyl-3H-[1,2,3]triazolo[4,5-b]pyridin-6-yl)-2,2-dimethylpropanoic acid] | > 5
